# In patent US11452725B2, “Chiral diaryl macrocycles and uses thereof” (TURNING POINT THERAPEUTICS, INC., priority 2015, dated 2022):
# Experiments:
# [1] = system: Ba/F3 EML4-ALK L1196M cell line; experiment: Cell proliferation assay (CellTiter-Glo); format: cell-based; settings: Mus musculus, 72 hours
# [2] = system: Ba/F3 CD74-ROS1 L2026M cell line; experiment: Cell proliferation assay (CellTiter-Glo); format: cell-based; settings: Mus musculus, BaF3, 72 h, read-out: Cell proliferation of Ba/F3 CD74-ROS1 L2026M cell line IC50
# [3] = system: Ba/F3 SDC4-ROS1 G2032R cell line; experiment: Cell proliferation assay (CellTiter-Glo); format: cell-based; settings: Mus musculus, BaF3; 72 hours
# [4] = molecular target: NPM-ALK (Homo sapiens, UniProt Q9UM73); experiment: In vivo pharmacodynamics: ALK phosphorylation in Karpas 299 tumors (immunoblotting); set-up: species or system mice
# NPM-ALK, sequence (Q9UM73 with tags, fused parts or gaps): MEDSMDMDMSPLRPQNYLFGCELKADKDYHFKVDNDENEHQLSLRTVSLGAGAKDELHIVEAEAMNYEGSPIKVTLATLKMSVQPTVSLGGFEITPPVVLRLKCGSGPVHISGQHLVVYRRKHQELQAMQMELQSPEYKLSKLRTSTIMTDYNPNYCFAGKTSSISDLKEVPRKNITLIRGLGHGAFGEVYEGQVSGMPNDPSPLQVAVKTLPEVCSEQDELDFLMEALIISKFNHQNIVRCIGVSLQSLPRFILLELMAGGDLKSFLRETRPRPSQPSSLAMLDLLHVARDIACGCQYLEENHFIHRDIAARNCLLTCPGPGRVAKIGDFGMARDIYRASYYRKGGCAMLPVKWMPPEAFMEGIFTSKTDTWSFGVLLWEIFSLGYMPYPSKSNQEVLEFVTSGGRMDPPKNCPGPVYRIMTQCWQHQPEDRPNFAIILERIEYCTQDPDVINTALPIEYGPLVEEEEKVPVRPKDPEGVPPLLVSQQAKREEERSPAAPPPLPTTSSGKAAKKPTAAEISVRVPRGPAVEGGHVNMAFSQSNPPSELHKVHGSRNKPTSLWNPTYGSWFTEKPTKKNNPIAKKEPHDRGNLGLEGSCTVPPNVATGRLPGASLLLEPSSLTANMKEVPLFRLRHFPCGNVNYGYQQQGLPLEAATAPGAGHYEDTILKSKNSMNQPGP
# Description: Mice bearing xenograft tumors were humanely euthanized and tumors were resected and snap frozen in liquid nitrogen and stored at −80° C. Frozen tumor samples were processed at 4° C. in 1× Cell Lysis Buffer (Cell Signaling Technologies) to extract proteins. SDS loading samples were prepared by adding one volume of 4×LDS Sample Buffer (Life Technologies, Inc) to three volumes of protein lysate. Tumor SDS protein samples were processed by SDS-PAGE and immunoblotted with rabbit anti-phosphorylated ALK and mouse anti-actin antibodies (Cell Signaling Technologies). The signals from immunoblot were detected by C-DiGit Blot Scanner from LI-COR and the signal intensity were quantified using the Image Studio Digit software (LI-COR).
# The level of ALK phosphorylation was determined by immunoblotting combined with signal quantification by the Image Studio Digit Software. […] At the dose of 15 mg/kg, ALK phosphorylation was reduced to <10% of the control level at 3 hours post oral administration and was maintained at about 21% of the control level at 12 hours post dosing.
# [5] = system: STAT5; experiment: Immunoblotting cellular phosphorylation assay, SET-2 cells (JAK2 V617F); format: cell-based; settings: Homo sapiens, SET-2, 4 h, 4 hours treatment, read-out: STAT5 phosphorylation of SET-2 cell line IC50
# Description: (§1) NSCLC cell line H2228 (harboring endogenous EML4-ALK fusion gene), HCC78 cells (harboring endogenous SLC34A2-ROS1 fusion gene), Karpas-299 cells (harboring endogenous NPM-ALK fusion gene) or SET-2 (harboring endogenous JAK2V617F activating mutation) were cultured in RPMI medium, and KM12 (harboring endogenous TPM3-TRKA fusion gene) cell line was cultured in DMEM medium, both supplemented with 10% fetal bovine serum and 100 U/mL of penicillin/streptomycin. Ba/F3 and NIH3T3 cells stably expressing ALK or ROS1 (WT or mutant) were culture as mentioned above. […] Protein lysates (approximately 20 μg) was resolved on 4-12% Bolt Bis-Tris precasted gels with MES running buffer (Life Technologies), transferred to nitrocellulose membranes using Trans-Blot Turbo Transfer System (Bio-Rad) and detected with antibodies targeting phosphorylated ALK Y1604 (Cell Signaling Technology), total ALK (Cell Signaling Technology), phosphorylated ROS1 and total ROS1 (Cell Signaling Technology), phosphorylated TRK A/B (Cell Signaling Technology), total TRKA antibody (Santa Cruz Biotechnology), phosphorylated STAT3 and STAT5, total STAT3 and STAT5 (Cell Signaling Technology), phosphorylated AKT (Cell Signaling Technology), total AKT (Cell Signaling Technology), phosphorylated ERK (Cell Signaling Technology), total ERK (Cell Signaling Technology) and Tubulin (Sigma). […]
# [6] = molecular target: T1, BLK (Homo sapiens, UniProt P51451); experiment: Biochemical kinase assay (Reaction Biology); settings: 10 μM ATP
# T1 construct: purchased Reaction Biology Corporation (contract assay)
# T1 sequence (P51451 whole entry): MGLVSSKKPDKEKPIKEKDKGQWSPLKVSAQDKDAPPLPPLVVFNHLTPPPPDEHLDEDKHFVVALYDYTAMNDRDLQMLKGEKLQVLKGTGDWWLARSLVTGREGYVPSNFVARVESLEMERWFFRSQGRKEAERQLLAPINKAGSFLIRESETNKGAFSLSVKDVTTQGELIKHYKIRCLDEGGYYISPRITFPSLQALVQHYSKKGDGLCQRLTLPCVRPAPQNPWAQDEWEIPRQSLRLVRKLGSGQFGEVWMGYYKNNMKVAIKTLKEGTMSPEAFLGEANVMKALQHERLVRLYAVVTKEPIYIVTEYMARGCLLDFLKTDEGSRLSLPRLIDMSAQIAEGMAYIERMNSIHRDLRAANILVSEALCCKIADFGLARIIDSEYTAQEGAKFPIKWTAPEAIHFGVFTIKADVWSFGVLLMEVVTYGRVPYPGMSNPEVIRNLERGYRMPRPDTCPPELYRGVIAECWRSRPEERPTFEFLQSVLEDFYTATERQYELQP
# [7] = system: EGFR; experiment: EGFR expression by immunoblotting in H2228 cells; format: cell-based, human; settings: 4 and 24 hour exposure, 0-1000 nM
# Description: NSCLC cell line H2228 (harboring endogenous EML4-ALK fusion gene) was cultured in RPMI medium supplemented with 10% fetal bovine serum and 100 U/mL of penicillin/streptomycin. Ba/F3 and NIH3T3 cells stably expressing ROS1, or TRKA, or TRKB, or TRKC (WT or mutant) were cultured as mentioned above. […] Cells were collected after treatment and lysed in RIPA buffer (50 mM Tris, pH 7.4, 150 mM NaCl, 1% NP-40, 0.5% Deoxycholate, 0.1% SDS) supplemented with 10 mM EDTA, 1× Halt protease and phosphatase inhibitors (Thermo Scientific). Protein lysates (approximately 20 μg) was resolved on 4-12% Bolt Bis-Tris precasted gels with MES running buffer (Life Technologies), transferred to nitrocellulose membranes using Trans-Blot Turbo Transfer System (Bio-Rad) and detected with antibodies targeting phosphorylated phosphorylated ROS1 and total ROS1 (Cell Signaling Technology), phosphorylated TRK A/B (Cell Signaling Technology), total TRKA antibody (Santa Cruz Biotechnology), phosphorylated SRC Y416 (Cell Signaling Technology), total SRC (Cell Signaling Technology), phosphorylated FAK Y576/577 (Cell Signaling Technology), total FAK (Cell Signaling Technology), phosphorylated paxillin Y118 (Cell Signaling Technology), total paxillin (Cell Signaling Technology), phosphorylated EGFR and total EGFR, CD44, and Tubulin (Sigma). […]
# [8] = system: STAT3; experiment: Immunoblotting downstream signaling, Karpas-299 cells; format: cell-based; settings: Homo sapiens, read-out: downstream STAT3 phosphorylation IC50
# Description: as §1
# [9] = system: AKT; experiment: as above; format: cell-based; settings: Homo sapiens, read-out: downstream AKT phosphorylation IC50
# Description: as §1
structure (smiles),measurement,setting,value
"C[C@H]1CNC(=O)c2cnn3ccc(nc23)N[C@H](C)c2cc(F)ccc2O1 [Compound 1, (7S,13R)-11-fluoro-7,13-dimethyl-6,7,13,14-tetrahydro-1,15-ethenopyrazolo[4,3-f][1,4,8,10]benzoxatriazacyclotridecin-4(5H)-one]",IC50,[1],50 nM
same,IC50,[3],5 nM
same,"ALK phosphorylation, % of the control level","[4]; 15 mg/kg BID 7 days, 3 hours post oral administration",< 10%
same,"ALK phosphorylation, % of the control level","[4]; 15 mg/kg BID 7 days, 12 hours post dosing",about 21%
same,"ALK phosphorylation, % of the control level","[4]; 50 mg/kg BID 7 days, 3 hours post oral administration",< 5%
same,"ALK phosphorylation, % of the control level","[4]; 50 mg/kg BID 7 days, 12 hours post dosing",about 10%
same,IC50,[5],~158 nM
same,IC50,[6],32.3 nM
same,EGFR expression,[7],down-regulated EGFR expression in a dose- and time-dependent manner
same,IC50,[8],1 to 3 nM
same,IC50,[9],1 to 3 nM
